Results published in the CheMixHub ionic liquid set.

Assay: xn = mol fraction of the nth substance listed

CC[N+](C)(CC)CCOC.F[B-](F)(F)F + O=C1CCCO1
101 kPa
Details	electrical conductivity [S/m]	viscosity [mPa·s]
288.15 K, x1 = 0.1006	0.841	6.82
288.15 K, x1 = 0.2004	0.851	9.23
288.15 K, x1 = 0.3005	0.691	16.02
288.15 K, x1 = 0.4002	0.57	23.81
288.15 K, x1 = 0.4999	0.424	63.2
288.15 K, x1 = 0.6001	0.29	103.1
288.15 K, x1 = 0.6998	0.215	157.6
288.15 K, x1 = 0.7999	0.164	213
293.15 K, x1 = 0.1006	0.951	5.32
293.15 K, x1 = 0.2004	0.976	7.92
293.15 K, x1 = 0.3005	0.817	13.79
293.15 K, x1 = 0.4002	0.688	20.66
293.15 K, x1 = 0.4999	0.522	49.1
293.15 K, x1 = 0.6001	0.377	78.1
293.15 K, x1 = 0.6998	0.298	116.8
293.15 K, x1 = 0.7999	0.227	155.5
298.15 K, x1 = 0.1006	1.06	4.185
298.15 K, x1 = 0.2004	1.114	6.94
298.15 K, x1 = 0.3005	0.956	11.91
298.15 K, x1 = 0.4002	0.811	17.89
298.15 K, x1 = 0.4999	0.641	38.49
298.15 K, x1 = 0.6001	0.472	59.7
298.15 K, x1 = 0.6998	0.389	86.9
303.15 K, x1 = 0.1006	1.18	3.324
303.15 K, x1 = 0.2004	1.26	6.02
303.15 K, x1 = 0.3005	1.113	10.17
303.15 K, x1 = 0.4002	0.971	15.32
303.15 K, x1 = 0.4999	0.783	30.01
303.15 K, x1 = 0.6001	0.596	45.3
303.15 K, x1 = 0.6998	0.503	64.6
308.15 K, x1 = 0.1006	1.28	2.671
308.15 K, x1 = 0.2004	1.433	5.26
308.15 K, x1 = 0.3005	1.28	8.82
308.15 K, x1 = 0.4002	1.126	13.39
308.15 K, x1 = 0.4999	0.927	24.01
308.15 K, x1 = 0.6001	0.725	35.23
308.15 K, x1 = 0.6998	0.615	48.3
313.15 K, x1 = 0.1006	1.416	2.197
313.15 K, x1 = 0.2004	1.606	4.633
313.15 K, x1 = 0.3005	1.47	7.63
313.15 K, x1 = 0.4002	1.29	11.62
313.15 K, x1 = 0.4999	1.09	19.44
313.15 K, x1 = 0.6001	0.868	27.85
313.15 K, x1 = 0.6998	0.745	36.75
318.15 K, x1 = 0.1006	1.55	1.855
318.15 K, x1 = 0.2004	1.78	4.085
318.15 K, x1 = 0.3005	1.65	6.55
318.15 K, x1 = 0.4002	1.48	10.01
318.15 K, x1 = 0.4999	1.27	15.67
318.15 K, x1 = 0.6001	1.04	21.94
318.15 K, x1 = 0.6998	0.878	27.84
323.15 K, x1 = 0.1006	1.69	1.577
323.15 K, x1 = 0.2004	1.97	3.603
323.15 K, x1 = 0.3005	1.839	5.68
323.15 K, x1 = 0.4002	1.68	8.77
323.15 K, x1 = 0.4999	1.46	12.42
323.15 K, x1 = 0.6001	1.22	16.68
323.15 K, x1 = 0.6998	1.02	20.94
328.15 K, x1 = 0.1006	1.827	1.35
328.15 K, x1 = 0.2004	2.15	3.183
328.15 K, x1 = 0.3005	2.05	4.95
328.15 K, x1 = 0.4002	1.89	7.71
328.15 K, x1 = 0.4999	1.66	10.11
328.15 K, x1 = 0.6001	1.41	13.1
328.15 K, x1 = 0.6998	1.21	15.79
333.15 K, x1 = 0.1006	1.96	1.142
333.15 K, x1 = 0.2004	2.34	2.827
333.15 K, x1 = 0.3005	2.25	4.282
333.15 K, x1 = 0.4002	2.1	6.74
333.15 K, x1 = 0.4999	1.86	8.58
333.15 K, x1 = 0.6001	1.63	11.02
333.15 K, x1 = 0.6998	1.404	12.64
338.15 K, x1 = 0.1006	2.08	0.992
338.15 K, x1 = 0.2004	2.53	2.498
338.15 K, x1 = 0.3005	2.47	3.693
338.15 K, x1 = 0.4002	2.32	5.89
338.15 K, x1 = 0.4999	2.09	6.92
338.15 K, x1 = 0.6001	1.86	8.55
338.15 K, x1 = 0.6998	1.607	9.17
343.15 K, x1 = 0.1006	2.21	0.876
343.15 K, x1 = 0.2004	2.73	2.235
343.15 K, x1 = 0.3005	2.68	3.194
343.15 K, x1 = 0.4002	2.54	5.15
343.15 K, x1 = 0.4999	2.29	5.85
343.15 K, x1 = 0.6001	2.1	7.16
343.15 K, x1 = 0.6998	1.85	6.87
348.15 K, x1 = 0.1006	2.35	0.795
348.15 K, x1 = 0.2004	2.92	2.001
348.15 K, x1 = 0.3005	2.91	2.754
348.15 K, x1 = 0.4002	2.79	4.507
348.15 K, x1 = 0.4999	2.56	4.69
348.15 K, x1 = 0.6001	2.35	5.48
348.15 K, x1 = 0.6998	2.08	5.52
353.15 K, x1 = 0.1006	2.48	0.716
353.15 K, x1 = 0.2004	3.14	1.753
353.15 K, x1 = 0.3005	3.11	2.391
353.15 K, x1 = 0.4002	3.04	4.028
353.15 K, x1 = 0.4999	2.82	3.864
353.15 K, x1 = 0.6001	2.62	4.301
353.15 K, x1 = 0.6998	2.36	3.983

O=C(O)CC(O)C(=O)O (centres undefined) + CCCC[N+](CCCC)(CCCC)CCCC.[Cl-] + O
100 kPa, x2 = 0.1428, x1 = 0.1428
Details	electrical conductivity [S/m]	viscosity [mPa·s]
293.15 K	0.0722	283
303.15 K	0.113	191
313.15 K	0.173	133
323.15 K	0.257	94
333.15 K	0.373	68.1

II + CCCCCCCCCCCC[n+]1ccn(C)c1.[I-]
Details	electrical conductivity [S/m]
298 K, 101.3 kPa, x2 = 0.2	2.02

CC[n+]1ccn(C)c1.O=S(=O)([O-])C(F)(F)F + CC#N
viscosity [mPa·s], 100 kPa
Details	298.15 K	303.15 K	308.15 K	313.15 K	318.15 K	323.15 K
x1 = 0.3948	4.5	4.1	3.8	3.5	–	–
x1 = 0.498	7.4	6.6	6	5.4	4.9	4.4
x1 = 0.595	–	9.5	8.4	7.5	6.7	6
x1 = 0.6936	–	–	–	–	9.5	8.3
x1 = 0.9005	34	–	–	–	–	–
x1 = 1	46	38	–	–	–	–

CC[n+]1ccn(C)c1.O=S(=O)([O-])C(F)(F)F + F[P-](F)(F)(F)(F)F.[Li+]
101 kPa, x1 = 1
Details	electrical conductivity [S/m]
288.15 K	0.605
298.15 K	0.859
333.15 K	2.24
